ChEMBL document CHEMBL3112438, “Structure-based optimization of cyclopropyl urea derivatives as potent soluble epoxide hydrolase inhibitors for potential decrease of renal injury without hypotensive action” (Bioorg Med Chem, 2014)
Values after ≈ are worked out from the molar mass of the structure shown. Active and inactive are the calls of the source. No cut-off for these calls is given here.

Experiments:
[1] = biological target: T1, Bifunctional epoxide hydrolase 2 (Rattus norvegicus, UniProt P80299); experiment: Inhibition of rat recombinant soluble epoxide hydrolase after 1 hr by fluorescence assay
T1 sequence (P80299 whole entry): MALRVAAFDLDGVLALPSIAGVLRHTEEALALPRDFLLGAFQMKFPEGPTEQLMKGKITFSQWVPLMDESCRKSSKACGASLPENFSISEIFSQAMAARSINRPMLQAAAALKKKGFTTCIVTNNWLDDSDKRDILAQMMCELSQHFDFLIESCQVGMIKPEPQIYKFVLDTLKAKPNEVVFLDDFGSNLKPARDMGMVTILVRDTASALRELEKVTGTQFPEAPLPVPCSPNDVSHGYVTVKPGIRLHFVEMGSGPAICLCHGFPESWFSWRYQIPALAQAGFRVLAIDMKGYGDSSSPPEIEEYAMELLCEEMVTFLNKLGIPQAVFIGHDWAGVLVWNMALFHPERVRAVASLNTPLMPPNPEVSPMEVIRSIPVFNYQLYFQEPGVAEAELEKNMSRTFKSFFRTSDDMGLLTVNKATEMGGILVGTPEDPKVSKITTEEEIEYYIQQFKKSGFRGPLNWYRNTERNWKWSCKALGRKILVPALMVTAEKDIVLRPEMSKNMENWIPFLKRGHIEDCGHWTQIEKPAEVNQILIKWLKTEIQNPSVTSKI

[2] = biological target: T2, Bifunctional epoxide hydrolase 2 (Homo sapiens, UniProt P34913); experiment: Inhibition of human recombinant soluble epoxide hydrolase after 1 hr by fluorescence assay
T2 sequence (P34913 whole entry): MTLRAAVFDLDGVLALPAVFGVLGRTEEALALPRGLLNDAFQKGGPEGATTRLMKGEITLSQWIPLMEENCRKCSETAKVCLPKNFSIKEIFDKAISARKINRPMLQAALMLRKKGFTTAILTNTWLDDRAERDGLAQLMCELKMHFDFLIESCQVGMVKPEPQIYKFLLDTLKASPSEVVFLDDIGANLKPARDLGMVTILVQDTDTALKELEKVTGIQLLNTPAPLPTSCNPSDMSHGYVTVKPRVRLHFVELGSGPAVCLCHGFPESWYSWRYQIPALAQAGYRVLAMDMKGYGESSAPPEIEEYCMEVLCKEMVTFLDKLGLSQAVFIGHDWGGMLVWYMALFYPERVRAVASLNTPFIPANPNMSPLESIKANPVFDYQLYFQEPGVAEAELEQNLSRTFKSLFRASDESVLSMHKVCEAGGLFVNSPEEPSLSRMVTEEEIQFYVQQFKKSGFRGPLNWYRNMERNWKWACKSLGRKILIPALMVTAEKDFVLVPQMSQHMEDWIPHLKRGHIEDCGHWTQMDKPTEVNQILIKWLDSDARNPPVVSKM

[3] = Aqueous solubility of the compound at pH 7.4 after 90 mins; type: physicochemical
Liver microsome [4] = experiment: Intrinsic clearance in human liver microsomes measured per mg of protein at 1 uM after 30 mins by LC/MS/MS analysis; type: ADME; details: 0.5 h
Liver microsome [5] = experiment: Intrinsic clearance in rat liver microsomes measured per mg of protein at 1 uM after 30 mins by LC/MS/MS analysis; type: ADME; details: 0.5 h
Cytochrome P450 2C8 [6] = biological target: T3, Cytochrome P450 2C8 (Homo sapiens, UniProt P10632); experiment: Inhibition of CYP2C8 in human liver microsomes after 10 mins by LC/MS/MS analysis; type: ADME
T3 sequence (P10632 whole entry): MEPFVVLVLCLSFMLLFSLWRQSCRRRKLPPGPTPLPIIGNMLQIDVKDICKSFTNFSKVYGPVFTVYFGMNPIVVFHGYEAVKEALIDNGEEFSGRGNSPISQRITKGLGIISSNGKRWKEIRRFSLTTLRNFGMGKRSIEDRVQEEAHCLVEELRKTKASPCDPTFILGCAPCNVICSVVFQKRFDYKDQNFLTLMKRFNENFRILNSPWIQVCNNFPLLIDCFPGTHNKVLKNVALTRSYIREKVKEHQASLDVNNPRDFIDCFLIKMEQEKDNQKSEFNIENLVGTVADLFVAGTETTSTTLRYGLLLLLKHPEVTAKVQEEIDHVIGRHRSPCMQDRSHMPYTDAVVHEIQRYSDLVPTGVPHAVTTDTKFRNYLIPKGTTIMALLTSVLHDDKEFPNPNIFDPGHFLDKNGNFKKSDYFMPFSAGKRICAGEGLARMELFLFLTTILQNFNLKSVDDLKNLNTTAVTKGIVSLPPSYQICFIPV

Rattus norvegicus [7] = experiment: AUC in Sprague-Dawley rat at 10 mg/kg, po; type: ADME, organism-based, Plasma; set-up: dose 10 mg/kg, route oral; details: in vivo
Rattus norvegicus [8] = experiment: Bioavailability in Sprague-Dawley rat at 1 mg/kg, iv and 10 mg/kg, po; type: ADME, organism-based; details: in vivo
Cytochrome P450 2C19 [9] = biological target: T4, Cytochrome P450 2C19 (Homo sapiens, UniProt P33261); experiment: Inhibition of CYP2C19 in human liver microsomes after 10 mins by LC/MS/MS analysis; type: ADME
Rattus norvegicus [10] = experiment: Renoprotective activity in Sprague-Dawley rat DOCA-salt model assessed as decrease in urinary albumin excretion at 100 mg/kg, po measured on day 28 post last dose; type: functional, organism-based; set-up: dose 100 mg/kg; details: Urine
Rattus norvegicus [11] = experiment: Renoprotective activity in Sprague-Dawley rat DOCA-salt model assessed as decrease in urinary MCP-1 excretion at 100 mg/kg, po measured on day 28 post last dose; type: functional, organism-based; set-up: dose 100 mg/kg; details: Urine
Rattus norvegicus [12] = experiment: Antihypertensive activity in Sprague-Dawley rat DOCA-salt model assessed as decrease in systolic blood pressure at 100 mg/kg, po measured on day 28 post last dose by tail-cuff method; type: functional, organism-based; set-up: dose 100 mg/kg; details: Artery
Rattus norvegicus [13] = experiment: Ex vivo inhibition of soluble epoxide hydrolase in Sprague-Dawley rat whole blood assessed as inhibition of 14,15-DHET production at 100 mg/kg, po measured after 1 to 6 hrs by ELISA relative to vehicle-treated control; type: functional
Rattus norvegicus [14] = experiment: Ex vivo inhibition of soluble epoxide hydrolase in po dosed Sprague-Dawley rat assessed as inhibition of 14,15-DHET production measured after 1 to 24 hrs by ELISA; type: functional, organism-based
Rattus norvegicus [15] = experiment: Renal toxicity in Sprague-Dawley rat DOCA-salt model assessed as effect on N-acetyl-beta-D-glucosaminidase level at 100 mg/kg, po measured on day 28 post last dose; type: organism-based; set-up: dose 100 mg/kg, route oral; details: in vivo
Cytochrome P450 2C8 [16] = biological target: T3, Cytochrome P450 2C8; experiment: Inhibition of CYP2C8 in human liver microsomes after 10 mins by mechanism-based assay; type: ADME
Cytochrome P450 2C19 [17] = biological target: T4, Cytochrome P450 2C19; experiment: Inhibition of CYP2C19 in human liver microsomes after 10 mins by mechanism-based assay; type: ADME

T4 sequence (P33261 whole entry): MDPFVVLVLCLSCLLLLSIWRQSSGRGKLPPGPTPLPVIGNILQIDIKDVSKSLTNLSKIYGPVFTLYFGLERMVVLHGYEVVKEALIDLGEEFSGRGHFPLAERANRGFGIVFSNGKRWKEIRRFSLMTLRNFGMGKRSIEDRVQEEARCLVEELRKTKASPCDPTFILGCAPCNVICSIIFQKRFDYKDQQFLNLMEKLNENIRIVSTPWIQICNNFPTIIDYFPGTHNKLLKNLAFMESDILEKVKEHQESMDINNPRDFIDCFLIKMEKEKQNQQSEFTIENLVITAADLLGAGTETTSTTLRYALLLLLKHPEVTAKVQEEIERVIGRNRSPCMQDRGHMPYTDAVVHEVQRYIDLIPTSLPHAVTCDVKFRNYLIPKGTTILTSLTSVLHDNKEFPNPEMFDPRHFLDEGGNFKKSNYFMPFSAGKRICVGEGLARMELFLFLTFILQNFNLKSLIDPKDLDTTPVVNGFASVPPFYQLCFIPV

O=C(N[C@H]1C[C@@H]1c1ccccc1)N1CCC(Oc2cccc(Cl)c2)CC1 (racemic)
IC50 [1]: 8 nM
IC50 [2]: 12 nM

O=C(N[C@H]1C[C@@H]1c1ccccc1)N1CCC(Oc2ccc(Cl)cc2)CC1 (racemic)
IC50 [1]: 9.3 nM
IC50 [2]: 22.4 nM

Cc1ccccc1OC1CCN(C(=O)N[C@H]2C[C@@H]2c2ccccc2)CC1 (racemic)
solubility at 1.5 h [3]: < 0.2 µg/mL
IC50 [1]: 4.2 nM
IC50 [2]: 3.1 nM

Cc1cccc(OC2CCN(C(=O)N[C@H]3C[C@@H]3c3ccccc3)CC2)c1 (racemic)
IC50 [1]: 6.5 nM
IC50 [2]: 8.9 nM

Cc1ccc(OC2CCN(C(=O)N[C@H]3C[C@@H]3c3ccccc3)CC2)cc1 (racemic)
IC50 [1]: 6.8 nM
IC50 [2]: 14.2 nM

O=C(N[C@H]1C[C@@H]1c1ccccc1)N1CCC(Oc2ccccc2C(F)(F)F)CC1 (racemic)
IC50 [1]: 3.2 nM
IC50 [2]: 2.1 nM

O=C(N[C@H]1C[C@@H]1c1ccccc1)N1CCC(Oc2cccc(C(F)(F)F)c2)CC1 (racemic)
IC50 [1]: 10.5 nM
IC50 [2]: 15.8 nM

COc1ccccc1OC1CCN(C(=O)N[C@H]2C[C@@H]2c2ccccc2)CC1 (racemic)
IC50 [1]: 12.8 nM
IC50 [2]: 11.3 nM

COc1ccc(OC2CCN(C(=O)N[C@H]3C[C@@H]3c3ccccc3)CC2)cc1 (racemic)
IC50 [1]: 5 nM
IC50 [2]: 10.2 nM

O=C(N[C@H]1C[C@@H]1c1ccccc1)N1CCC(Oc2ccccc2-c2ccccc2)CC1 (racemic)
IC50 [1]: 20.7 nM
IC50 [2]: 14.7 nM

O=C(N[C@H]1C[C@@H]1c1ccccc1)N1CCC(Oc2cccc(-c3ccccc3)c2)CC1 (racemic)
IC50 [1]: 5.9 nM
IC50 [2]: 10.7 nM

O=C(N[C@H]1C[C@@H]1c1ccccc1)N1CCC(Oc2ccc(-c3ccccc3)cc2)CC1 (racemic)
IC50 [1]: 6.7 nM
IC50 [2]: 12 nM

O=C(O)c1ccccc1OC1CCN(C(=O)N[C@H]2C[C@@H]2c2ccccc2)CC1 (racemic)
IC50 [1]: > 100 nM
IC50 [2]: > 100 nM

O=C(O)c1cccc(OC2CCN(C(=O)N[C@H]3C[C@@H]3c3ccccc3)CC2)c1 (racemic)
solubility at 1.5 h [3]: > 150 µg/mL
CLint (Liver microsome [4]): < 0.01 mL/min/mg
IC50 [1]: > 100 nM
CLint (Liver microsome [5]): < 0.01 mL/min/mg
IC50 [2]: > 100 nM

O=C(O)c1ccc(OC2CCN(C(=O)N[C@H]3C[C@@H]3c3ccccc3)CC2)cc1 (racemic)
solubility at 1.5 h [3]: > 150 µg/mL
CLint (Liver microsome [4]): < 0.01 mL/min/mg
IC50 [1]: 32.2 nM
CLint (Liver microsome [5]): < 0.01 mL/min/mg
IC50 [2]: 30.3 nM

O=C(N[C@H]1C[C@@H]1c1ccccc1)N1CCC(Oc2ccc(-c3nnn[nH]3)cc2)CC1 (racemic)
solubility at 1.5 h [3]: > 150 µg/mL
CLint (Liver microsome [4]): < 0.033 mL/min/mg
IC50 [1]: 6.6 nM
CLint (Liver microsome [5]): < 0.01 mL/min/mg
IC50 [2]: 3.3 nM
IC50 (Cytochrome P450 2C8 [6]): 0.8 µM

O=C(O)c1ccc(OC2CCN(C(=O)N[C@H]3C[C@@H]3c3ccccc3)CC2)c(Cl)c1 (racemic)
solubility at 1.5 h [3]: > 150 µg/mL
CLint (Liver microsome [4]): < 0.01 mL/min/mg
AUC (Rattus norvegicus [7]): 15900 ng·h/mL
IC50 [1]: 4.1 nM
F (Rattus norvegicus [8]): 31%
CLint (Liver microsome [5]): < 0.01 mL/min/mg
IC50 [2]: 2.6 nM
IC50 (Cytochrome P450 2C19 [9]): > 50 µM
IC50 (Cytochrome P450 2C8 [6]): > 50 µM

O=C(O)Cc1ccc(OC2CCN(C(=O)N[C@H]3C[C@@H]3c3ccccc3)CC2)c(Cl)c1 (racemic)
solubility at 1.5 h [3]: > 150 µg/mL
Activity (Rattus norvegicus [10]): Active
Activity (Rattus norvegicus [11]): Active
CLint (Liver microsome [4]): < 0.01 mL/min/mg
Activity (Rattus norvegicus [12]): inactive
AUC (Rattus norvegicus [7]): 30400 ng·h/mL
IC50 [1]: 6.6 nM
F (Rattus norvegicus [8]): 63%
CLint (Liver microsome [5]): < 0.01 mL/min/mg
IC50 [2]: 4.3 nM
inhibition in vivo at 100 mg/kg (Rattus norvegicus [13]): < 20%
IC50 (Cytochrome P450 2C19 [9]): > 50 µM
inhibition (Rattus norvegicus [14]): Dose-dependent effect
Activity (Rattus norvegicus [15]): Non-toxic
IC50 (Cytochrome P450 2C8 [6]): > 50 µM

O=C(N[C@H]1C[C@@H]1c1ccccc1)N1CCC(Oc2ccccc2)CC1 (racemic)
IC50 [1]: 18.3 nM
IC50 [2]: 18 nM

O=C(N[C@H]1C[C@@H]1c1ccccc1)N1CCC(Oc2ccccn2)CC1 (racemic)
IC50 [1]: 35.4 nM
IC50 [2]: 27.4 nM

O=C(N[C@H]1C[C@@H]1c1ccccc1)N1CCC(Oc2cccnc2)CC1 (racemic)
IC50 [1]: 20.2 nM
IC50 [2]: 25.2 nM

O=C(N[C@H]1C[C@@H]1c1ccccc1)N1CCC(Oc2ccncc2)CC1 (racemic)
IC50 [1]: 12.3 nM
IC50 [2]: 24.4 nM

O=C(N[C@H]1C[C@@H]1c1ccccc1)N1CCC(Oc2ncccn2)CC1 (racemic)
IC50 [1]: > 100 nM
IC50 [2]: 94.2 nM

O=C(N[C@H]1C[C@@H]1c1ccccc1)N1CCC(Oc2cnccn2)CC1 (racemic)
IC50 [1]: 25.6 nM
IC50 [2]: 26.7 nM

O=C(N[C@H]1C[C@@H]1c1ccccc1)N1CCC(OC(c2ccccc2)c2ccccc2)CC1 (racemic)
IC50 [1]: 5.2 nM
IC50 [2]: 27.1 nM

O=C(N[C@H]1C[C@@H]1c1ccccc1)N1CCC(Oc2ccccc2Cl)CC1 (racemic)
IC50 [1]: 3.5 nM
IC50 [2]: 2 nM

CC(C)c1noc(C2CCN(C(=O)N[C@H]3C[C@@H]3c3ccccc3)CC2)n1 (relative stereo)
solubility at 1.5 h [3]: 41 µg/mL (≈ 116 µM)
inhibition (INH) (Cytochrome P450 2C8 [16]): Active
inhibition (INH) (Cytochrome P450 2C19 [17]): Active
CLint (Liver microsome [4]): < 0.01 mL/min/mg
IC50 [1]: 8.3 nM
CLint (Liver microsome [5]): 0.079 mL/min/mg

O=C(N[C@H]1C[C@@H]1c1ccccc1)N1CCC(Oc2ccc(C(F)(F)F)cc2)CC1 (relative stereo)
IC50 [1]: 8.9 nM
IC50 [2]: 29.8 nM

COc1cccc(OC2CCN(C(=O)N[C@H]3C[C@@H]3c3ccccc3)CC2)c1 (relative stereo)
IC50 [1]: 5.1 nM
IC50 [2]: 7.4 nM

O=C(O)Cc1ccc(OC2CCN(C(=O)N[C@H]3C[C@@H]3c3ccccc3)CC2)cc1 (relative stereo)
solubility at 1.5 h [3]: > 150 µg/mL
CLint (Liver microsome [4]): < 0.033 mL/min/mg
IC50 [1]: 56.6 nM
CLint (Liver microsome [5]): < 0.01 mL/min/mg
IC50 [2]: 43.2 nM
